In ChEMBL document CHEMBL6078702, “Hypoxia-selective prodrug restrains tumor cells through triggering mitophagy and inducing apoptosis” (Eur J Med Chem, 2025):
Activity calls are given as the source filed them. No cut-off for these calls is given here.

How the values were obtained:
HeLa [1] = assay: Cytotoxicity against human HeLa cells under normoxia condition incubated for 48 hrs by MTT assay; format: functional, cell-based
HepG2 [2] = assay: Cytotoxicity against human HepG2 cells under normoxia condition incubated for 48 hrs by MTT assay; format: functional, cell-based; conditions: HepG2, 48 h
HeLa [3] = assay: Cytotoxicity against human HeLa cells under hypoxic condition incubated for 48 hrs by MTT assay; format: functional, cell-based
HepG2 [4] = assay: Cytotoxicity against human HepG2 cells under hypoxic condition incubated for 48 hrs by MTT assay; format: functional, cell-based; conditions: HepG2, 48 h
HeLa [5] = assay: Induction of apoptosis in human HeLa cells under hypoxic condition assessed as viable cells at 5 uM incubated for 48 hrs by Annexin V-FITC/PI staining based flow cytometry (reference value: 98.13 %); format: functional; conditions: read-out: Activity
HeLa [6] = assay: Induction of mitochondrial membrane potential dissipation in human HeLa cells under hypoxic condition at 5 uM incubated for 24 hrs by flow cytometry; format: functional, cell-based
[7] = Acute toxicity in BALB/c nude mouse xenografted with human HeLa cells assessed as damage in spleen at 1000 mg/kg, ip by H and E staining based analysis; format: organism-based; conditions: in vivo
HeLa [8] = assay: Induction of mitophagy in human HeLa cells under hypoxic condition assessed as encapsulation of mitochondria in vacuoles at 10 uM incubated for 48 hrs by TEM analysis; format: functional, cell-based
[9] = Toxicity in BALB/c nude mouse xenografted with human HeLa cells assessed as body weight change at 25 to 50 mg/kg, ip qd for 14 days; format: organism-based; conditions: in vivo, 336 h, dose 25-50 mg/kg, time 14 day
HeLa [10] = assay: Induction of mitochondrial membrane potential dissipation in human HeLa cells under hypoxic condition assessed as accumulation of green fluorescence at 5 uM incubated for 24 hrs by JC-1 staining based CLSM analysis; format: functional, cell-based
[11] = Acute toxicity in BALB/c nude mouse xenografted with human HeLa cells assessed as damage in liver at 1000 mg/kg, ip by H and E staining based analysis; format: organism-based; conditions: in vivo
HeLa [12] = assay: Antitumor activity against human HeLa cells xenografted in BALB/c nude mouse at 25 mg/kg, ip qd for 14 days relative to control; format: functional; conditions: 336 h, time 14 day, read-out: TGI
HeLa [13] = assay: Induction of morphological damage in human HeLa cells under hypoxic condition by Hoechst 33342 staining based analysis; format: functional, cell-based
HeLa [14] = assay: Induction of morphological change in mitochondria in human HeLa cells under hypoxic condition assessed as increase in IMMT level at 5 uM incubated for 48 hrs by immunofluorescence based analysis; format: functional, cell-based
HeLa [15] = assay: Induction of apoptosis in human HeLa cells under hypoxic condition assessed as increase in cleaved PARP-1 level at 1 to 10 uM incubated for 48 hrs by Western blot analysis; format: functional, cell-based; conditions: dose 1-10 µM
HeLa [16] = assay: Induction of apoptosis in human HeLa cells under hypoxic condition assessed as late apoptotic cells at 5 uM incubated for 48 hrs by Annexin V-FITC/PI staining based flow cytometry (reference value: 0.10 %); format: functional
HeLa [17] = assay: Induction of apoptosis in human HeLa cells under hypoxic condition assessed as early apoptotic cells at 5 uM incubated for 48 hrs by Annexin V-FITC/PI staining based flow cytometry (reference value: 0.60 %); format: functional
HeLa [18] = assay: Induction of mitophagy in human HeLa cells under hypoxic condition assessed as increase in ratio of LC3-II to LC3-I levels incubated for 24 hrs by Western blot analysis; format: functional, cell-based; conditions: dose 1-10 µM
HeLa [19] = assay: Induction of morphological damage in human HeLa cells under normoxia condition by Hoechst 33342 staining based analysis; format: functional, cell-based
HeLa [20] = assay: Induction of morphological change in mitochondria in human HeLa cells under hypoxic condition assessed as onion-like circle formation of cristae folds in inner membrane at 5 uM incubated for 48 hrs by TEM analysis; format: functional, cell-based
HeLa [21] = assay: Induction of morphological change in mitochondria in human HeLa cells under hypoxic condition assessed as formation of vacuoles at 5 to 10 uM incubated for 48 hrs by TEM analysis; format: functional, cell-based; conditions: dose 5-10 µM
HeLa [22] = assay: Antitumor activity against human HeLa cells xenografted in BALB/c nude mouse assessed as tumor growth suppression at 25 to 50 mg/kg, ip qd for 14 days; format: functional, organism-based; conditions: dose 25-50 mg/kg, time 14.0 day
HeLa [23] = assay: Induction of morphological change in mitochondria in human HeLa cells under hypoxic condition assessed as formation of multi-lamellar globules at 5 uM incubated for 48 hrs by TEM analysis; format: functional, cell-based
[24] = Acute toxicity in BALB/c nude mouse xenografted with human HeLa cells assessed as damage in heart at 1000 mg/kg, ip by H and E staining based analysis; format: organism-based; conditions: in vivo
[25] = Acute toxicity in BALB/c nude mouse xenografted with human HeLa cells assessed as damage in lung at 1000 mg/kg, ip by H and E staining based analysis; format: organism-based; conditions: in vivo
HeLa [26] = assay: Induction of mitophagy in human HeLa cells under hypoxic condition assessed as co-localization of mitochondria and lysosomes at 5 uM incubated for 24 hrs by CLSM analysis; format: functional, cell-based
HeLa [27] = assay: Induction of apoptosis in human HeLa cells under hypoxic condition assessed as necrotic cells at 5 uM incubated for 48 hrs by Annexin V-FITC/PI staining based flow cytometry (reference value: 1.17 %); format: functional
[28] = Acute toxicity in BALB/c nude mouse xenografted with human HeLa cells assessed as damage in kidney at 1000 mg/kg, ip by H and E staining based analysis; format: organism-based; conditions: in vivo
HeLa [29] = assay: Antitumor activity against human HeLa cells xenografted in BALB/c nude mouse at 50 mg/kg, ip qd for 14 days relative to control; format: functional; conditions: 336 h, time 14 day, read-out: TGI
HeLa [30] = assay: Induction of mitophagy in human HeLa cells under hypoxic condition assessed as decrease in p62 level incubated for 24 hrs by Western blot analysis; format: functional, cell-based; conditions: dose 1-10 µM
HeLa [31] = assay: Induction of morphological change in mitochondria in human HeLa cells under hypoxic condition assessed as disappearance of cristae at 5 to 10 uM incubated for 48 hrs by TEM analysis; format: functional, cell-based; conditions: dose 5-10 µM
HeLa [32] = assay: Induction of apoptosis in human HeLa cells under hypoxic condition assessed as increase in cleaved caspase-3 level at 1 to 10 uM incubated for 48 hrs by Western blot analysis; format: functional, cell-based; conditions: dose 1-10 µM
[33] = Toxicity in BALB/c nude mouse xenografted with human HeLa cells assessed as animal mortality at 25 to 50 mg/kg, ip qd for 14 days; format: organism-based; conditions: in vivo, dose 25-50 mg/kg, time 14 day

Compound: O=C(/C=C/c1cccc([N+](=O)[O-])c1)c1ccc(OCc2cn(CCCC[P+](c3ccccc3)(c3ccccc3)c3ccccc3)nn2)c(Br)c1
- IC50 (HeLa [1]): > 50 µM
- IC50 (HepG2 [2]): 12.8 µM
- IC50 (HeLa [3]): > 50 µM
- IC50 (HepG2 [4]): 26.5 µM

Compound: COc1ccc(/C=C/C(=O)c2ccc(OCc3cn(CCCC[P+](c4ccccc4)(c4ccccc4)c4ccccc4)nn3)c(Br)c2)cc1[N+](=O)[O-]
- IC50 (HeLa [1]): 10.7 µM
- IC50 (HepG2 [2]): 21.6 µM
- IC50 (HeLa [3]): > 50 µM
- IC50 (HepG2 [4]): 19.3 µM

Compound: COc1ccc(C(=O)/C=C/c2cccc([N+](=O)[O-])c2)cc1F
- viability at 5 µM (HeLa [5]): 18.8%
- Activity (HeLa [6]): Active
- Activity [7]: Non-toxic
- Activity (HeLa [8]): Active; Result Indicates That Mitochondria Were Removed From Cells Through Autophagosomes
- Activity [9]: Non-toxic
- Activity (HeLa [10]): Active
- Activity [11]: Non-toxic
- inhibition in vivo at 25 mg/kg (HeLa [12]): 30.3%
- Activity (HeLa [13]): Active
- Activity (HeLa [14]): Active
- Activity (HeLa [15]): Active
- IC50 (HeLa [1]): > 50 µM
- Activity (HeLa [16]): 63.25%
- IC50 (HepG2 [2]): > 50 µM
- Activity (HeLa [17]): 10.21%
- Activity (HeLa [18]): Active
- Activity (HeLa [19]): inactive
- Activity (HeLa [20]): Active
- Activity (HeLa [21]): Active
- Activity (HeLa [22]): Active
- Activity (HeLa [23]): Active
- IC50 (HeLa [3]): 3.3 µM
- Activity [24]: Non-toxic
- Activity [25]: Non-toxic
- Activity (HeLa [26]): Active
- Activity (HeLa [27]): 7.74%
- Activity [28]: Non-toxic
- inhibition in vivo at 50 mg/kg (HeLa [29]): 57.4%
- Activity (HeLa [30]): Active
- IC50 (HepG2 [4]): 5 µM
- Activity (HeLa [31]): Active
- Activity (HeLa [32]): Active

Compound: COc1ccc(C(=O)/C=C/c2ccc(OC)c([N+](=O)[O-])c2)cc1Br
- IC50 (HeLa [1]): > 100 µM
- IC50 (HepG2 [2]): > 50 µM
- IC50 (HeLa [3]): 15.1 µM
- IC50 (HepG2 [4]): 15.4 µM

Compound: COc1ccc(C(=O)/C=C/c2ccc(OC)c([N+](=O)[O-])c2)cc1F
- IC50 (HeLa [1]): > 100 µM
- IC50 (HepG2 [2]): > 50 µM
- IC50 (HeLa [3]): > 50 µM
- IC50 (HepG2 [4]): 23.1 µM

Compound: COc1ccc(C(=O)/C=C/c2cccc(N)c2)cc1F
- Activity [11]: Non-toxic
- mortality at 336 h [33]: 50%
- Activity [25]: Non-toxic
